# Assay results taken from patent US20060104985A1, “Dengue virus infection inhibitor” (priority 2002, published 2006).
# Key:
# [1] = test system: dengue virus (D2Th7 strain); assay: TLC/virus-binding assay of glycolipids; details: HPLC fractions of the neutral glycolipid fraction of mosquito-derived C6/36 cells
# Experimental: The neutral glycolipid fractions I to IV obtained in the foregoing (c) (10 μl each), and as a reference standard, LacCer (1 μl), CTH (2 μl), paragloboside (PG: Galβ1-4GlcNAcβ1-3Galβ1-4Glcβ1-1′Cer) (2 μl), GA1 (Galβ1-3GalNAcβ1-4Galβ1-4Glcβ1-1′Cer) (2 μl), globoside (GalNAcβ1-3Galα1-4Galβ1-4Glcβ1-1′Cer) (2 μl) were spotted on TLC plates (Polygram Sil G), developed with acetone once, and developed with CHCl3/MeOH/12 mM MgCl2 (50/40/10, by vol). Then, orcinol reagent was sprayed and the plate was heated at 110° C., whereby color reaction was developed. With regard to the neutral glycolipid fractions I to IV, TLC/virus-binding assay was carried out by the method described above.
# The neutral glycolipid fraction II-2 (10 μl) obtained by the foregoing method described in (1), PI (10 μl), PG (2 μl) and globoside (1 μl) were spotted on a TLC plate (Polygram Sil G), developed with acetone once, and developed with CHCl3/MeOH/12 mM MgCl2 (50/40/10, by vol). […]
# Subsequently, 2.5 ml of human anti-flavivirus antiserum diluted to 1,000-fold with Solution A was added and reacted at room temperature for 1 hour. […] Finally, the plates were reacted with 2.5 ml of a color-developing substrate solution (0.1 M citrate buffer pH 6.0 (2.5 ml), 0.11 M 4-chloro-1-naphthol in CH3CN (50 μl), 0.06 M DEPDA in CH3CN (50 μl), 30% H2O2 (5 μl)), and bound virus particles were detected. […]
# dengue virus infection = details: rhesus monkeys; cited from earlier work
# [2] = test system: binding of dengue virus to K562 cells; assay: Inhibitory activity on binding of dengue virus to K562 cell surface, flow cytometer (Example 3); type: cell-based
# Experimental: After K562 cells were cultured until confluent, the cells were dispensed into a microtube to be 4×10^5 cells/0.1 ml. After this microtube was centrifuged at 4° C. for 3 minutes at 3,500 rpm, the obtained cell pellet was washed once with 1 ml of PBS containing 0.1% BSA. After it was further centrifuged at 4° C. for 3 minutes at 3,500 rpm, a dengue virus stock solution was diluted with PBS containing 0.1% BSA to the concentrations of 5,000 units/ml, 2,000 units/ml, 1,000 units/ml, and 500 units/ml, respectively. Then, 100 μl of each of the solutions was added to the K562 cells, and reacted at 4° C. for 1 hour.
# Incidentally, as virus(−), a solution to which only PBS containing 0.1% BSA was added in the same amount was used.
# After the reaction, the cells were washed 3 times with 1 ml of chilled PBS(−), 100 μl of a solution of human anti-flavivirus antiserum (lot No. 1), which had been diluted to 200-fold, was added, respectively, as a primary antibody, well suspended, and reacted at 4° C. for 30 minutes. […]
# K562 cells (1×10^5 cells) were seeded on a 24-well culture plate, and the total volume was made up to 1 ml with RPMI medium. […] The solution was transferred to a microtube, and virus binding was evaluated by the method described in (1).
# [3] = test system: binding of dengue virus to K562 cells; assay: Inhibition of binding of dengue virus to K562 cell surface, flow cytometer (Example 2); type: cell-based
# Experimental: After K562 cells were cultured until confluent, the cells were dispensed into a microtube to be 2×10^5 cells/0.1 ml. After this microtube was centrifuged at 4° C. for 2 minutes at 10,000 rpm, the obtained cell pellet was washed once with 1 ml of PBS containing 0.1% BSA. After a dengue virus solution (2,000 units/ml) and PG (0, 100, 200 or 500 μM) or GA1 (500 μM), which is a reference glycolipid, were preincubated in PBS containing 0.1% BSA at 4° C. for 1 hour, 100 μl of each of the solutions was added to K562 cells, and the virus was allowed to bind to the cell at 4° C. for 1 hour. Incidentally, as virus(−), only PBS containing 0.1% BSA was added in the same amount. After the reaction, the cells were washed 3 times with 1 ml of chilled PBS(−), 100 μl of a solution of human anti-flavivirus antiserum (lot No. 1), which had been diluted to 200-fold, was added, respectively, as a primary antibody, well suspended, and reacted at 4° C. for 30 minutes. The cells were washed 3 times with 1 ml of chilled PBS(−), and 100 μl of a solution of a FITC-labeled goat anti-human IgG (Zymed), which had been diluted to 50-fold, was added, respectively, as a secondary antibody and shielded from light. Then, they were reacted at 4° C. for 30 minutes. […]
# [4] = test system: infection of K562 cells with dengue virus; assay: Virus infection test of K562 cells with oligosaccharide-pretreated dengue virus, antigen positive cells by flow cytometer; type: cell-based; details: virus pretreated with oligosaccharide at 28° C. for 30 minutes, infection at 37° C. for 2 hours
# Experimental: In any cases, 1 mM stock solution was prepared with sterile PBS(−). This solution was appropriately diluted and used for the infection inhibition test.
# Dilution was carried out with serum-free RPMI medium (SF-RPMI) containing 0.2% BSA so as to give a final virus concentration of 3×105 FFU (focus forming unit)/sample, and the solution was stirred well and placed on ice.
# To 630 μl (virus volume per 1 sample) of the dengue virus solution prepared in (2) described above, an equivalent amount of a diluted solution containing an oligosaccharide was added, stirred well, and incubated at 28° C. for 30 minutes. This solution was used as a pretreated virus solution.
# In addition, as a negative control, the one obtained by mixing PBS(−) with the virus solution was used.
# After K562 cells were washed once with SF-RPMI, the cells were prepared at 1×10^6 cells/ml with 0.1% BSA-SF-RPMI. This cell suspension was dispensed in 100 μl aliquots into tubes. Thereto was added the pretreated virus solution, stirred gently, and infection of cells was carried out at 37° C. for 2 hours. During this time, the solution in the tube was gently stirred every 20 minutes. After the solution was centrifuged at 3,400 rpm for 3 minutes, the virus solution was removed, and the cells were washed 3 times with 0.1% BSA-SF-RPMI. To the cell pellet, 2 ml of RPMI medium containing 2% serum (2% FCS-RPMI) was added, and suspended. […]
compound,measurement,setting,value
GlcNAcβ1-3Manβ1-4Glcβ1-1Cer [Fraction 13],binding of purified glycolipids to dengue virus on TLC plate (FIG. 8),[1],binds to the virus very strongly
NC(=O)c1ncn([C@@H]2O[C@H](CO)[C@@H](O)[C@H]2O)n1 [ribavirin],adverse effects induced,dengue virus infection,anemia or thrombocytosis
same,preventive effect against dengue virus infection,dengue virus infection,did not show a preventive effect
Galβ1-4GlcNAcβ1-3Manβ1-4Glcβ1-1Cer [Fraction 15],binding of purified glycolipids to dengue virus on TLC plate (FIG. 8),[1],binds to the virus very strongly
"Galβ1-3GalNAcβ1-4Galβ1-4Glcβ1-1′Cer [GA1, reference compound]",effect on binding of dengue virus to the cell surface (FIG. 6),"[2]; negative control, GA1 500 μM",not affected at all
same,inhibition of binding of dengue virus to K562 cells (FIG. 5),"[3]; 500 μM, preincubated with virus 2,000 units/ml at 4° C. for 1 hour",could not inhibit
Galβ1-4GlcNAcβ1-3Galβ1-4Glcβ1-1′Cer [paragloboside],inhibition of the binding of dengue virus to K562 cells (FIG. 6),"[2]; paragloboside 100, 200 or 500 μM, virus 2,000 units/ml",inhibition of the binding of dengue virus to K562 cells is caused depending on the concentration of paragloboside
same,inhibition of binding of dengue virus to K562 cells (FIG. 5),"[3]; PG 100, 200 or 500 μM preincubated with virus 2,000 units/ml at 4° C. for 1 hour",inhibited depending on the concentration of PG
"CC(=O)N[C@H]1[C@H](O[C@H]2[C@@H](O)[C@@H](CO)O[C@@H](O[C@H]3[C@H](O)[C@@H](O)C(O)O[C@@H]3CO)[C@@H]2O)O[C@H](CO)[C@@H](O[C@@H]2O[C@H](CO)[C@H](O)[C@H](O)[C@H]2O)[C@@H]1O (stereo partly drawn) [paragloboside saccharide chain, Galβ1-4GlcNAcβ1-3Galβ1-4Glc]",inhibition of infection of K562 cells with dengue virus (FIG. 9),[4],inhibited the infection of K562 cells with dengue virus depending on the concentration
